In patent US8647651B2, “Synergistic mixtures of C6- to C12-alkanediols and tropolone (derivatives)” (priority 2005, dated 2014):

Tested on: Aspergillus niger ATCC 16404
Test: Testing for adequate preservation (European Pharmacopoeia) of O/W emulsion, Example 1
Type: cell-based
Settings: for Aspergillus niger germ count: O/W emulsion pH 5.5, 0.5% product A, 0.01% product B, 0.31% product C
Experimental: Testing for adequate preservation was carried out in accordance with the European Pharmacopoeia. Testing thus comprises contamination of the formulation, if possible in its final condition, with a prescribed inoculum of suitable microorganisms, storage of the inoculated formulation at a certain temperature, removal of samples from the container at certain intervals of time and determination of the number of microorganisms in the samples removed in this way. The preserving properties are adequate if, under the conditions of the test, a clear reduction or, where appropriate, no increase in the germ count results in the inoculated formulations after the prescribed times at the prescribed temperatures. Experimental details of the test procedure are described in the European Pharmacopoeia (ISBN 3-7692-2768-9; Supplement 2001 to the 3rd Edition, page 421-422, chapter 5.1.3). The following microorganism strains were used for the tests for adequate preservation: • A: Escherichia coli ATCC 8739 • B: Pseudomonas aeruginosa ATCC 9027 • C: Staphylococcus aureus ATCC 6538 • D: Candida albicans ATCC 10231 • E: Aspergillus niger ATCC 16404 The initial germ count (CFU/g; “0 value”) was in the range of from 250,000 to 320,000 in the various test series. Formulation: For the tests for adequate preservation, a defined amount of the active compound combination according to the invention (product C) was incorporated into an O/W emulsion. For comparison purposes, the comparison products (product A and B) were incorporated into separate O/W emulsions. [table] The results of the preservative stress tests for Aspergillus niger for the active compound combinations investigated, comprising the mixture according to the invention (product C) or the comparison systems (products A and B) are compared in Table 2. The synergistic effect of the mixture according to the invention (product C) manifests itself here above all in the residual germ counts for Aspergillus niger which remain after 28 days.

O=c1cccccc1O [product B, 2,4,6-cycloheptatrien-1-one, 2-hydroxy]
reduction in the number of colony-forming units (CFU) of Aspergillus niger (28 days, product A 0.5 wt. %): no such significant reduction
Aspergillus niger germ count (day 0 (initial germ count)): 280,000 CFU/ml
Aspergillus niger germ count (day 2): 72,000 CFU/ml
Aspergillus niger germ count (day 7): 2,000 CFU/ml
Aspergillus niger germ count (day 14): 4,800 CFU/ml
Aspergillus niger germ count (day 28): 100 CFU/ml
